ChEMBL document CHEMBL1152207, “Leucettamol A: a new inhibitor of Ubc13-Uev1A interaction isolated from a marine sponge, Leucetta aff. microrhaphis” (Bioorg Med Chem Lett, 2008)
Calls of active or inactive are those of the source. No cut-off for these calls is given here.

Columns and labels:
[1] = target: Ubiquitin-conjugating enzyme E2 N/Ubiquitin-conjugating enzyme E2 variant 1 (Homo sapiens) (UniProt Q13404+P61088); test: (§1) Inhibition of human Ubc13-Uev1A interaction expressed in Escherichia BL21 after 15 mins by ELISA
[2] = target: Ubiquitin-conjugating enzyme E2 N/Ubiquitin-conjugating enzyme E2 variant 1 (Homo sapiens, UniProt P61088+Q13404); test: as §1
[3] = target: T1, Ubiquitin-conjugating enzyme E2 N (Homo sapiens) (UniProt P61088); test: Inhibition of Ubc13-[…] interaction by ELISA
T1 sequence (whole entry): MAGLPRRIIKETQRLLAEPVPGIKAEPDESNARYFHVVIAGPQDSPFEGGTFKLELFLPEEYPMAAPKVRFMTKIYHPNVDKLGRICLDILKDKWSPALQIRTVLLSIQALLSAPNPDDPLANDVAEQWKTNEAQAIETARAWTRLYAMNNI

| SMILES | Activity [1] | IC50 [2] | Activity [3] |
| --- | --- | --- | --- |
| CC(=O)N[C@H](C)[C@H](C/C=C\C/C=C\C/C=C\C/C=C\C/C=C\C/C=C\CCCCCC[C@H](OC(C)=O)[C@@H](C)NC(C)=O)OC(C)=O | inactive | – | – |
| C[C@@H](N)[C@@H](O)CCCCCCCCCCCCCCCCCCCCCCCC[C@H](O)[C@@H](C)N | – | 8.25 µM | – |
| C[C@@H](N)[C@@H](O)C/C=C\C/C=C\C/C=C\C/C=C\C/C=C\C/C=C\CCCCCC[C@H](O)[C@@H](C)N [LEUCETTAMOL A] | – | 106 µM | inactive |
